According to ChEMBL document CHEMBL5370556, “Optimization, and biological evaluation of 3-O-β-chacotriosyl betulinic acid amide derivatives as novel small-molecule Omicron” (Eur J Med Chem, 2023):
Calls of active or inactive are those of the source. The calls are words filed in the database; no cut-off is given here.

How the values were obtained:
Assay type in all cases: functional, organism-based
[1] = system: SARS-CoV-2; test: Antiviral activity against luciferase-expressing pseudovirus encoding SARS-CoV-2 Omicron expressing S protein R765A/K964A mutant infected in human 293T/ACE2 cells assessed as reduction of viral growth measured after 48 hrs by luciferase assay; settings: Severe acute respiratory syndrome coronavirus 2
[2] = system: SARS-CoV-2; test: Antiviral activity against luciferase-expressing pseudovirus encoding SARS-CoV-2 Omicron expressing S protein L303A/E309A mutant infected in human 293T/ACE2 cells assessed as reduction of viral growth measured after 48 hrs by luciferase assay; settings: Severe acute respiratory syndrome coronavirus 2
[3] = system: SARS-CoV-2; test: Antiviral activity against luciferase-expressing pseudovirus encoding SARS-CoV-2 Omicron expressing S protein L303A/E309A/R765A/K964A mutant infected in human 293T/ACE2 cells assessed as reduction of viral growth at 1.25 to 10 uM measured after 48 hrs by luciferase assay; settings: Severe acute respiratory syndrome coronavirus 2, dose 1.25-10 µM

`C=C(C)[C@@H]1CC[C@]2(C(=O)Nc3ccc4ccccc4c3)CC[C@]3(C)[C@H](CC[C@@H]4[C@@]5(C)CC[C@H](O[C@@H]6O[C@H](CO)[C@@H](O[C@@H]7O[C@@H](C)[C@H](O)[C@@H](O)[C@H]7O)[C@H](O)[C@H]6O[C@@H]6O[C@@H](C)[C@H](O)[C@@H](O)[C@H]6O)C(C)(C)[C@@H]5CC[C@]43C)[C@@H]12` was tested, and the Activity [1] was “Active”, the Activity [2] was “Active” and the Activity [3] was “inactive”.
